According to patent publication US7563787B2, “Substituted pyrazole compounds” (Miikana Therapeutics, Inc., priority 2005, dated 2009):

Experiments:
recombinant Aurora A = biological target: T1, recombinant Aurora A (Homo sapiens, UniProt O14965); experiment: Aurora A (Aurora 2) Inhibition Assay (Z'-Lyte); format: biochemical; settings: 100 μM compound; ATP 10 μM; 1 h
T1 construct: purchased Upstate, Lake Placid, N.Y
T1 sequence (O14965 1-403): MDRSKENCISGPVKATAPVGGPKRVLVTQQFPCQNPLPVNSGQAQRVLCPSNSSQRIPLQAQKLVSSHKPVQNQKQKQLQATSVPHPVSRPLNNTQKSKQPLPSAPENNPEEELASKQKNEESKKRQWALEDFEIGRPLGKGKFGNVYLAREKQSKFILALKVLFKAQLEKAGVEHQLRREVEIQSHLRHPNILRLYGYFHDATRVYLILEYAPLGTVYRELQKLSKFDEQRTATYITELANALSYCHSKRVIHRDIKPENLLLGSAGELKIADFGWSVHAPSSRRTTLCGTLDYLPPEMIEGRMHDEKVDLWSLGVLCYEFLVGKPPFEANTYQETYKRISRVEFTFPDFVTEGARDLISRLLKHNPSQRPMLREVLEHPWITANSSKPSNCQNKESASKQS
Method: Compounds were tested for their potency against recombinant Aurora A (Upstate, Lake Placid, N.Y.) using the PanVera Z'-Lyte kinase assay kit-Ser/[…] peptide (Invitrogen, Carlsbad, Calif.). […] Assays were carried out in half-area 96-well white polystyrene assay plates (Corning, Corning, N.Y.) in a final volume of 20 μl. The reaction was allowed to proceed for 1 h at room temperature in the dark, at which point the development reagent and stop reagent were added according to the manufacturer's instructions. Coumarin (Ex. 400 nm, Em. 465 nm) and fluorescein (Ex. 400 nm, Em. 565 nm) fluorescence values were measured on a SpectraFluor Plus plate reader (Tecan, Durham, N.C.). The emission ratio (coumarin/fluorescein) was determined and used to calculate the percent phosphorylation for each well. […] Typically 20-40% of the substrate was phosphorylated in wells without inhibitor. Dose-response curves of relative Aurora A activity vs. inhibitor concentration were plotted with Grafit (Erithacus Software, Horley, Surrey, UK).

HCT-116 cell growth = experiment: Whole Cell Cytotoxicity Assay: Sulforhodamine B; format: cell-based, Human; settings: Homo sapiens, HCT-116; 100 μM compound; 96 hours; SRB staining
Method: Human tumor-derived cell lines, HCT116 or MCF7 (ATCC) were plated in a 96 well plate in DMEM containing 10% fetal bovine serum and 2 mM L-glutamine at a density of 500 HCT116 cells or 1,000 MCF7 cells per well and incubated at 37° C., 5% CO2, for 24 hours prior to the addition of experimental compounds. Compounds were added using the dilution series indicated to duplicate plates and the cells were incubated in media plus compound for 96 hours. An additional plate was fixed in 10% TCA at the time of the addition of compound to provide a measurement of the cell population at time zero, the time of drug addition. Following the 96 hour incubation, cells were fixed in situ by gently aspirating off the culture media and then adding 50 ul of ice cold 10% TCA per well and incubation at 4° C. for 60 minutes. The plates were washed with tap water five times and allowed to air dry for 5 minute. 50 ul of a 0.4% (w/v) Sulforhodamine B solution in 1% (v/v) acetic acid was added per well and the cells were incubated for 30 minutes at room temperature. Following staining, plates were washed four times with 1% acetic acid to remove any unbound dye and then allowed to air dry for 5 minutes. The stain was solubilized with 100 ul of 10 mM Tris pH 10.5 per well and placed on an orbital rotator for 5 minutes. The absorbance was read at 570 nm. Percentage growth was calculated using the absorbance readings from the time zero plate (Tz) and the dilution series plate […] which included a column of cells grown in media without compound as a control (C) using the formulas: [(Ti−Tz)/(C−Tz)]×100 for concentrations for which Ti>/=Tz [(Ti−Tz)/Tz]×100 for concentrations for which Ti<Tz.
Three dose response parameters were calculated for each experimental agent. Growth inhibition of 50% (GI50) was calculated from [(Ti−Tz)/(C−Tz)]×100=50, which was the drug concentration resulting in a 50% reduction in the net protein increase (as measured by SRB staining) in control cells during the drug incubation. The drug concentration resulting in total growth inhibition (TGI) was calculated from Ti=Tz. The LC50 (concentration of drug resulting in a 50% reduction in the measured protein at the end of the drug treatment as compared to that at the beginning) indicating a net loss of cells following treatment was calculated from [(Ti−Tz)/Tz]×100=−50. Values are calculated for each of these three parameters if the level of activity was reached; however, if the effect was not reached or was exceeded, the value for that parameter is expressed as greater or less than the maximum or minimum concentration tested.

Aurora B kinase = biological target: T2, Aurora B kinase (Homo sapiens, UniProt Q96GD4); experiment: Aurora B (Aurora 1) Inhibition Assay; format: biochemical; settings: 100 μM compound; ATP 50 μM; 16 h
T2 construct: purchased BPS Biosciences, San Diego, Calif
Method: Assays for Aurora B kinase inhibition were carried out similarly to those for Aurora A kinase (see above) with the following modifications. Aurora B kinase (BPS Biosciences, San Diego, Calif.) was used as the enzyme, at a concentration was 2.5 μg/mL. The ATP concentration was 50 μM, and the kinase reaction was allowed to proceed for 16 h. Sodium orthovanadate (20 μM) was added to the buffer to inhibit contaminating phosphatases.

T2 sequence (Q96GD4 whole entry): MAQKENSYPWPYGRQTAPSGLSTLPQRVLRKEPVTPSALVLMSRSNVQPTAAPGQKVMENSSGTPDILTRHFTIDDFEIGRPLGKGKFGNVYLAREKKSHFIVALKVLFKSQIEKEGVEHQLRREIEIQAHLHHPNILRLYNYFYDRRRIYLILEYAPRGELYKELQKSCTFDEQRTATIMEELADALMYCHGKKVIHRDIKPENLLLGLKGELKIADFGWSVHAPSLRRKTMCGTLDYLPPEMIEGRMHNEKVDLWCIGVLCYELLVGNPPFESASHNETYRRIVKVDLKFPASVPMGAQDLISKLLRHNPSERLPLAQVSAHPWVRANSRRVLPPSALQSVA

`CCOC(=O)c1nc(/C=C/c2ccccc2)nc(Nc2cc(C)n[nH]2)c1N` [Example 18, ethyl 5-amino-6-[(3-methyl-1H-pyrazol-5-yl)amino]-2-[(E)-2-phenylvinyl]pyrimidine-4-carboxylate] gave an inhibition at 100 µM (recombinant Aurora A) of 100%, an inhibition at 100 µM (HCT-116 cell growth) of 80% and an inhibition at 100 µM (Aurora B kinase) of 100%.

`COC(=O)c1cc(Nc2cc(C)n[nH]2)nc(/C=C/c2ccccc2)n1` [Example 26, methyl 6-[(3-methyl-1H-pyrazol-5-yl)amino]-2-[(E)-2-phenylvinyl]pyrimidine-4-carboxylate] gave an inhibition at 100 µM (recombinant Aurora A) of 99%, an inhibition at 100 µM (HCT-116 cell growth) of 98% and an inhibition at 100 µM (Aurora B kinase) of 95%.

With `Cc1cc(Nc2cc(N3CCN(C)CC3)nc(C#Cc3ccccc3)n2)n[nH]1` [Example 30, 6-(4-methylpiperazin-1-yl)-N-(3-methyl-1H-pyrazol-5-yl)-2-(phenylethynyl)pyrimidin-4-amine] the inhibition at 100 µM (recombinant Aurora A) was 100%, the inhibition at 100 µM (HCT-116 cell growth) was 99% and the inhibition at 100 µM (Aurora B kinase) was 97%.

With `Cc1cc(Nc2cc(N3CCN(C)CC3)nc(/C=C\c3ccccc3)n2)n[nH]1` [Example 32, 6-(4-methylpiperazin-1-yl)-N-(3-methyl-1H-pyrazol-5-yl)-2-[(Z)-2-phenylvinyl]pyrimidin-4-amine] the inhibition at 100 µM (recombinant Aurora A) was 100%, the inhibition at 100 µM (HCT-116 cell growth) was 87% and the inhibition at 100 µM (Aurora B kinase) was 99%.

Work on `Cc1cc(Nc2cc(N3CCN(C)CC3)nc(/C=C/c3ccco3)n2)n[nH]1` [Example 60, 2-((E)-2-(furan-2-yl)vinyl)-N-(5-methyl-1H-pyrazol-3-yl)-6-(4-methylpiperazin-1-yl)pyrimidin-4-amine] yielded an inhibition at 100 µM (recombinant Aurora A) of 100%, an inhibition at 100 µM (HCT-116 cell growth) of 98% and an inhibition at 100 µM (Aurora B kinase) of 99%.

`Cc1cc(Nc2cc(N3CCCCC3)nc(/C=C/c3ccccc3)n2)n[nH]1` [Example 67, N-(5-methyl-1H-pyrazol-3-yl)-6-(piperidin-1-yl)-2-styrylpyrimidin-4-amine] gave an inhibition at 100 µM (recombinant Aurora A) of 100% and an inhibition at 100 µM (HCT-116 cell growth) of 98%.

`Cc1cc(Nc2cc(OCCN(C)C)nc(/C=C/c3ccccc3)n2)n[nH]1` [Example 69] was tested, and the inhibition at 100 µM (recombinant Aurora A) was 100% and the inhibition at 100 µM (HCT-116 cell growth) was 99%.

For `Cc1cc(Nc2cc(N3CCN(S(C)(=O)=O)CC3)nc(/C=C/c3ccccc3)n2)n[nH]1` [Example 71, N-(5-methyl-1H-pyrazol-3-yl)-6-(4-methylsulfonylpiperazin-1-yl)-2-styrylpyrimidin-4-amine], the inhibition at 100 µM (recombinant Aurora A) was 100% and the inhibition at 100 µM (HCT-116 cell growth) was 98%.

`Cc1cc(Nc2cc(NCCN3CCN(C)CC3)nc(/C=C/c3ccccc3)n2)n[nH]1` [Example 77, N^4-(5-methyl-1H-pyrazol-3-yl)-N^6-(2-(4-methylpiperazin-1-yl)ethyl)-2-styrylpyrimidine-4,6-diamine] gave an inhibition at 100 µM (recombinant Aurora A) of 100% and an inhibition at 100 µM (HCT-116 cell growth) of 99%.

`Cc1cc(Nc2cc(Nc3ccccc3)nc(/C=C/c3ccccc3)n2)n[nH]1` [Example 82, N^4-(5-methyl-1H-pyrazol-3-yl)-N^6-phenyl-2-styrylpyrimidine-4,6-diamine] showed an inhibition at 100 µM (recombinant Aurora A) of 100% and an inhibition at 100 µM (HCT-116 cell growth) of 98%.

For `Cc1cc(Nc2cc(N3CCSCC3)nc(/C=C/c3ccccc3)n2)n[nH]1` [Example 83, N-(5methyl-1H-pyrazol-3-yl)-2-styryl-6thiomorpholinopyrimidin-4-amine], the inhibition at 100 µM (recombinant Aurora A) was 100% and the inhibition at 100 µM (HCT-116 cell growth) was 98%.

`Cc1cc(Nc2cc(Nc3ccc(F)cc3)nc(/C=C/c3ccccc3)n2)n[nH]1` [Example 86, N^4-(4-fluorophenyl)-N^6-(5methyl-1H-pyrazol-3-yl)-2-styrylpyrimidine-4,6-diamine] was tested, and the inhibition at 100 µM (recombinant Aurora A) was 100% and the inhibition at 100 µM (HCT-116 cell growth) was 98%.

With `Cc1cc(Nc2cc(NC3CCOCC3)nc(/C=C/c3ccccc3)n2)n[nH]1` [Example 99, N^4-(tetrahydro-2H-pyran-4-yl)-N^6-(5-methyl-1H-pyrazol-3-yl)-2-styrylpyrimidine-4,6-diamine] the inhibition at 100 µM (recombinant Aurora A) was 100% and the inhibition at 100 µM (HCT-116 cell growth) was 98%.

`Cc1cc(Nc2cc(OC3CCNCC3)nc(/C=C/c3ccccc3)n2)n[nH]1` [Example 100] was tested, and the inhibition at 100 µM (recombinant Aurora A) was 100%, the inhibition at 100 µM (HCT-116 cell growth) was 96% and the inhibition at 100 µM (Aurora B kinase) was 100%.

In the case of `Cc1cc(Nc2cc(N3CCN(C)CC3)nc(/C=C/c3ccc(Br)cc3)n2)n[nH]1` [Example 103, 2-(4-bromostyryl)-N-(5-methyl-1H-pyrazol-3-yl)-6-(4-methylpiperazin-1-yl)pyrimidin-4-amine], the inhibition at 100 µM (recombinant Aurora A) is reported as 100% and the inhibition at 100 µM (HCT-116 cell growth) is reported as 84%.

With `COc1ccc(/C=C/c2nc(Nc3cc(C)[nH]n3)cc(N3CCN(C)CC3)n2)cc1` [Example 160, 2-(4-methoxystyryl)-N-(5-methyl-1H-pyrazol-3-yl)-6-(4-methylpiperazin-1-yl)pyrimidin-4-amine] the inhibition at 100 µM (recombinant Aurora A) was 100% and the inhibition at 100 µM (HCT-116 cell growth) was 97%.

Compound `Cc1cc(Nc2cc(NCc3ccco3)nc(/C=C/c3ccccc3)n2)n[nH]1` [Example 162, N^4-((furan-2-yl)methyl)-N^6-(5methyl-1H-pyrazol-3-yl)-2-styrylpyrimidine-4,6-diamine] has an inhibition at 100 µM (recombinant Aurora A) of 100% and an inhibition at 100 µM (HCT-116 cell growth) of 98%.

With `COCCNc1cc(Nc2cc(C)[nH]n2)nc(/C=C/c2ccccc2)n1` [Example 163, N^4-(2-methoxyethyl)-N^6-(5methyl-1H-pyrazol-3-yl)-2-styrylpyrimidine-4,6-diamine] the inhibition at 100 µM (recombinant Aurora A) was 100%, the inhibition at 100 µM (HCT-116 cell growth) was 98% and the inhibition at 100 µM (Aurora B kinase) was 100%.

Compound `Cc1cc(Nc2cc(NCC3CCCO3)nc(/C=C/c3ccccc3)n2)n[nH]1` (stereo not shown) [Example 164, N^4-((tetrahydrofuran-2-yl)methyl)-N^6-(5-methyl-1H-pyrazol-3-yl)-2-styrylpyrimidine-4,6-diamine] has an inhibition at 100 µM (recombinant Aurora A) of 100%, an inhibition at 100 µM (HCT-116 cell growth) of 96% and an inhibition at 100 µM (Aurora B kinase) of 100%.

In the case of `Cc1ccc(/C=C/c2nc(Nc3cc(C)[nH]n3)c(N)c(N3CCN(C)CC3)n2)cc1` [Example 170], the inhibition at 100 µM (recombinant Aurora A) is reported as 100% and the inhibition at 100 µM (HCT-116 cell growth) is reported as 99%.

For `Cc1cc(Nc2nc(/C=C/c3ccc(Cl)cc3)nc(N3CCN(C)CC3)c2N)n[nH]1` [Example 172], the inhibition at 100 µM (recombinant Aurora A) was 99% and the inhibition at 100 µM (HCT-116 cell growth) was 99%.

Compound `Cc1cc(Nc2nc(/C=C/c3ccc(F)cc3)nc(N3CCN(C)CC3)c2N)n[nH]1` [Example 173] has an inhibition at 100 µM (recombinant Aurora A) of 100% and an inhibition at 100 µM (HCT-116 cell growth) of 98%.
